target: T1, human FAAH (Homo sapiens, UniProt O00519); assay: Human FAAH biochemical inhibition assay (AMC arachidonoyl amide fluorescence); conditions: class given in each Example, read-out: Activity (Ki, inhibition of human FAAH)
T1 construct: host or cells: COS-7 cells, transient transfection (FuGENE 6); 13,000 g membrane fraction solubilised in 1% Triton X-100
T1 sequence (O00519 1-579): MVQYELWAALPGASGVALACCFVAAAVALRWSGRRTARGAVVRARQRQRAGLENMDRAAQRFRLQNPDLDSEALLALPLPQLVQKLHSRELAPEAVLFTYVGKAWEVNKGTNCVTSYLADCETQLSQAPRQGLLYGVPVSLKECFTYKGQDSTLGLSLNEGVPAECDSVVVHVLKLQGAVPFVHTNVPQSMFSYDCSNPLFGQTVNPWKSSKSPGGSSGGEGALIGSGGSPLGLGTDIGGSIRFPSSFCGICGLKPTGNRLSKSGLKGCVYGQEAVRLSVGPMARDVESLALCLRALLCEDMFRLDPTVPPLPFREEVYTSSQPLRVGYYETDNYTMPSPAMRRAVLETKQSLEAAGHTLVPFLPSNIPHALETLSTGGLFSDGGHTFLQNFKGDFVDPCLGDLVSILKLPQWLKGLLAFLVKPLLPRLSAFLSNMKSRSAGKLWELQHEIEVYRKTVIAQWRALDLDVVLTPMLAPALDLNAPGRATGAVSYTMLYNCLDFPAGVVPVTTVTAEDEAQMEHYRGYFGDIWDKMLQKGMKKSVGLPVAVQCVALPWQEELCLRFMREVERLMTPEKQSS
Description: Exemplary compounds are set forth in the Examples provided below. Compounds were assayed as inhibitors of human FAAH using the method described in detail in Example 286.
The following assays may be used to determine the inhibition of FAAH by the compounds of the present invention: (1) a fluorescence-based assay for fatty acid amide hydrolase compatible with high-throughput screening as described in Manjunath et al., Analytical Biochemistry (2005) 343:143-151; and (2) a high-throughput screening for the discovery of inhibitors of fatty acid amide hydrolase using a microsome-based fluorescent assay. Wang et al., Biomolecular Screening (2006) 1-9.
COS-7 cells were split the day before, 1:5 into 150 mm×25 mm cell culture dishes (Corning Inc., Cat. No. 430599). Transient transfection took place at 30-40% confluency according to FuGENE 6 Transfection Reagent (Roche, Cat. No. 11814 443 001).
The FuGENE transfection 6 reagent (45 uL) was added to 1410 μL of media (DMEM, serum free without pen/strep) in a 15 mL conical tube and incubated at room temp for 5 minutes, followed by the addition of FAAH plasmid DNA (15 μg) (OriGene Cat. No. TC119221, Genbank Accession No. NM_001441.1, 0.67 ug/uL) and a further incubation of 15 minutes at room temperature. The resulting solution was added into one dish of 30-40% confluent COS-7 cells in a drop-wise manner. The COS-7 cell dish was subsequently incubated for 48 hours. The cells are then harvested.
Media was aspirated from the dishes and the cells rinsed with 10 mL PBS. The PBS was removed and 3 mL of PBS added to the dish. The dish was scraped to resuspend the cells, and the subsequent cell suspension collected into a 15 mL conical tube. The cells were pelleted by centrifugation at 1200 rpm for 5 minutes in a bench top centrifuge. PBS was removed and the cell pellet snap frozen in liquid nitrogen and stored at −80° C.
COS-7 Cells—FAAH Purification: • (1) Fractionation: Frozen cell pellets from transient transfections were thawed on ice and resuspended in 12.5 mM Hepes pH 8.0, 100 mM NaCl, 1 mM EDTA (10 mL/0.2 g cell pellet). The pellets were dounce homogenized and then sonicated to produce cell extract. The cell extract was subsequently centrifuged at 1000 g to remove cellular debris. The pellet was discarded and the supernatant centrifuged at 13,000 g for 20 minutes. The pellet contained membrane bound FAAH. The supernatant was discarded and the pellet resolubilized. • (2) Re-solubilization: The fraction of interest, (13,000 g, membrane fraction) was re-suspended in 2.3 mL re-suspension buffer (20 mM Hepes pH 7.8, 10% v/v Glycerol, 1 mM EDTA, 1% Triton X-100) and the sample incubated on ice for 1 hour and then centrifuged to remove any particulate matter. The supernatant containing solubilized human FAAH was aliquoted and snap frozen in liquid nitrogen and stored at −80° C. until use. • (3) Characterization: Protein Concentration determined by Bradford assay. • SDS gel and Western blot to confirm presence of FAAH • FAAH activity assay • Km determination—96-well assay • Linear dependence—96-well assay • Standard compound Ki determination—384-well assay
Rat FAAH biochemical assays were carried out in a 96 well flat bottom black non-treated polystyrene plates (Corning Costar Catalogue #3915). FAAH reaction buffer: 50 mM Hepes (pH 7.5), 1 mM EDTA, 0.2% Triton X-100. FAAH substrate—AMC Arachidonoyl Amide (Cayman Chemicals Company, Catalog #10005098). The reaction was read in an Envision microtiter plate reader [Excitation filter 355 nm (40 nm bandpass); Emmision filter 460 nm (25 nm bandpass)]. The raw fluorescence was plotted on the y axis and the inhibitor concentration on the x axis to give a dose response inhibition curve. The data was fitted to a single site competitive inhibition equation, fixing the Km for the rat and human enzyme to 12 μM and 9 μM respectively. […]

Ki	SMILES
≤ 10 nM	O=Cc1cc(OCCc2ccccc2)ccc1B(O)O [Compound 98]
≤ 10 nM	COC(=O)/C=C/c1cc(OCCc2ccccc2)ccc1B(O)O [Compound 100]
100 to 1000 nM	COC(=O)/C=C/c1ccsc1B(O)O [Compound 101]
10 to 100 nM	COC(=O)CCc1cc(OCCc2ccccc2)ccc1B(O)O [Compound 102]
10 to 100 nM	CN(C)C(=O)/C=C/c1cc(OCCc2ccccc2)ccc1B(O)O [Compound 103]
10 to 100 nM	OB1ON=Cc2cc(OCCc3ccccc3)ccc21 [Compound 104]
10 to 100 nM	OB1ON=Cc2cc(OCc3ccccc3)ccc21 [Compound 105]
100 to 1000 nM	[O-]/[N+](=C\c1cc(OCc2ccccc2)ccc1B(O)O)Cc1ccccc1 [Compound 106]
> 1000 nM	OCCN1N=Cc2cc(OCCc3ccccc3)ccc2B1O [Compound 107]
> 1000 nM	CN1N=Cc2cc(OCCc3ccccc3)ccc2B1O [Compound 108]
10 to 100 nM	OB1c2ccc(OCc3ccccc3)cc2C=NN1Cc1ccccc1 [Compound 109]
100 to 1000 nM	CN(Cc1ccccc1)Cc1cc(OCc2ccccc2)ccc1B(O)O [Compound 110]
100 to 1000 nM	OB(O)c1ccc(OCc2ccccc2)cc1CNCc1ccccc1 [Compound 111]
100 to 1000 nM	O=C(/C=C/c1ccccc1B(O)O)NCc1ccccc1 [Compound 112]
> 1000 nM	CC(C)(C)OC(=O)Nc1cccc(NC(=O)/C=C/c2ccccc2B(O)O)c1 [Compound 113]
100 to 1000 nM	CN(Cc1ccccc1)C(=O)/C=C/c1ccccc1B(O)O [Compound 114]
10 to 100 nM	OB(O)c1ccc(OCc2ccccc2)cc1/C=N/OCc1ccccc1 [Compound 115]
> 1000 nM	O=C(CCc1ccccc1)N/N=C/c1ccccc1B(O)O [Compound 116]
10 to 100 nM	CC(C)(C)OC(=O)NCC(=O)N/N=C/c1cc(OCc2ccccc2)ccc1B(O)O [Compound 117]

Ki	SMILES
> 1000 nM	NCC(=O)N/N=C/c1cc(OCc2ccccc2)ccc1B(O)O [Compound 118]
≤ 10 nM	O=C(CCN1C(=O)C=CC1=O)N/N=C/c1cc(OCCc2ccccc2)ccc1B(O)O [Compound 119]
≤ 10 nM	CC(=O)N/N=C/c1cc(OCCc2ccccc2)ccc1B(O)O [Compound 120]
> 1000 nM	O=C(Cc1ccccc1)N/N=C/c1ccccc1B(O)O [Compound 121]
> 1000 nM	O=C(Cc1c[nH]c2ccccc12)N/N=C/c1ccccc1B(O)O [Compound 122]
> 1000 nM	Cc1nc(CC(=O)N/N=C/c2ccccc2B(O)O)cs1 [Compound 123]
10 to 100 nM	O=C(Cc1ccccc1)N/N=C/c1cc(OCc2ccccc2)ccc1B(O)O [Compound 124]
10 to 100 nM	O=C(N/N=C/c1cc(OCc2ccccc2)ccc1B(O)O)c1cccnc1 [Compound 125]
100 to 1000 nM	OB(O)c1ccc(-c2cn(Cc3ccc(C(F)(F)F)cc3)nn2)cc1 [Compound 127]
10 to 100 nM	COc1cccc(Cn2cc(-c3ccc(B(O)O)cc3)nn2)c1 [Compound 128]
≤ 10 nM	Cc1cccc(Cn2cc(-c3ccc(B(O)O)cc3)nn2)c1 [Compound 129]
10 to 100 nM	OB(O)c1ccc(-c2cn(-c3ccccc3)nn2)cc1 [Compound 130]
10 to 100 nM	OB(O)c1ccc(-c2cn(-c3ccccc3)nn2)cc1F [Compound 134]
10 to 100 nM	OB(O)c1ccc(-c2cn(Cc3ccccc3)nn2)cc1F [Compound 137]
100 to 1000 nM	OB(O)c1ccc(-c2cnnn2Cc2ccccc2)cc1F [Compound 138]
10 to 100 nM	OB(O)c1ccc(-n2cc(-c3ccccc3)nn2)cc1F [Compound 141]
100 to 1000 nM	OB(O)c1ccc(-n2nncc2-c2ccccc2)cc1F [Compound 142]
≤ 10 nM	OB(O)c1ccc(-n2cc(-c3ccccc3)nn2)cc1 [Compound 143]
10 to 100 nM	OB(O)c1ccc(-n2nncc2-c2ccccc2)cc1 [Compound 144]

The remaining lines, values behind:

SMILES	Ki
OB(O)c1cccc(-c2nnc(-c3ccccc3)o2)c1 [Compound 63]	100 to 1000 nM
OB(O)c1ccc(Cc2nnc(-c3ccccc3)o2)cc1 [Compound 64]	10 to 100 nM
OB(O)c1ccc(-c2nnc(-c3ccccn3)o2)cc1 [Compound 65]	10 to 100 nM
COc1cccc(-c2nnc(-c3ccc(B(O)O)cc3)o2)c1 [Compound 66]	≤ 10 nM
OB(O)c1ccc(-c2nnc(-c3ccccc3)o2)c(F)c1 [Compound 67]	10 to 100 nM
OB(O)c1ccc(-c2nnc(-c3ccccc3)o2)c(Cl)c1 [Compound 68]	≤ 10 nM
OB(O)c1ccc(-c2nnc(Cc3ccccc3)o2)cc1F [Compound 69]	10 to 100 nM
OB(O)c1ccc(-c2nnc(Cc3ccccc3)o2)cc1 [Compound 70]	≤ 10 nM
OB(O)c1ccc(-c2nnc(-c3ccccc3)o2)cc1 [Compound 71]	≤ 10 nM
CCCc1nnc(-c2ccsc2B(O)O)o1 [Compound 72]	> 1000 nM
CC(C)(O)c1nnc(-c2ccc(B(O)O)cc2)o1 [Compound 73]	10 to 100 nM
CCOCc1nnc(-c2ccc(B(O)O)cc2)o1 [Compound 74]	10 to 100 nM
COCc1nnc(-c2ccc(B(O)O)cc2)o1 [Compound 75]	≤ 10 nM
CCCc1nnc(-c2ccc(B(O)O)c(-c3nnc(CCC)o3)c2)o1 [Compound 76]	≤ 10 nM
CC(C)(C)c1nnc(-c2ccc(B(O)O)cc2)o1 [Compound 77]	≤ 10 nM
C=CCCCc1nnc(-c2ccc(B(O)O)cc2)o1 [Compound 78]	≤ 10 nM
OB(O)c1ccc(-c2nnc(-c3ccccc3)o2)cc1F [Compound 79]	10 to 100 nM
OB(O)c1ccc(-c2nnc(-c3ccccc3)o2)c(C(F)(F)F)c1 [Compound 81]	100 to 1000 nM
CC(C)(C)OC(=O)NCCc1nnc(-c2ccc(B(O)O)cc2)o1 [Compound 82]	10 to 100 nM
CC(C)(C)OC(=O)NCc1nnc(-c2ccc(B(O)O)cc2)o1 [Compound 83]	10 to 100 nM
NCCc1nnc(-c2ccc(B(O)O)cc2)o1 [Compound 84]	> 1000 nM
CC(=O)NCCc1nnc(-c2ccc(B(O)O)cc2)o1 [Compound 85]	100 to 1000 nM
COC(=O)NCCc1nnc(-c2ccc(B(O)O)cc2)o1 [Compound 86]	10 to 100 nM
Cc1nc2cc(B(O)O)ccc2s1 [Compound 88]	100 to 1000 nM
COCCCc1cn(-c2ccccc2)nc1-c1ccc(B(O)O)cc1 [Compound 92]	> 1000 nM
COCc1cc(OCCc2ccccc2)ccc1B(O)O [Compound 95]	10 to 100 nM
OCc1cc(OCc2ccccc2)ccc1B(O)O [Compound 96]	> 1000 nM
OB(O)c1ccc(OCCc2ccccc2)cc1COCc1ccccc1 [Compound 97]	> 1000 nM
